Results from ChEMBL document CHEMBL1123061, “Potentiation of fasciolicidal agents by benzoyl side chains. Synthesis of benzoylsalicylanilides” (1985).

Test system: Fasciola hepatica
Assay: In vivo for fasciolicidal activity against Fasciola hepatica infections in rats following s.c. administration.

| SMILES | Dose |
| --- | --- |
| Cc1cc(C(=O)c2ccc(Cl)cc2)cc(C(=O)Nc2cc(Cl)cc(Cl)c2)c1O | 100 mg/kg |
| Cc1cc(C(=O)c2ccc(Cl)cc2Cl)cc(C(=O)Nc2ccc([N+](=O)[O-])cc2Cl)c1O | 6.3 mg/kg |
| Cc1cc(C(=O)c2ccc(I)cc2)cc(C(=O)Nc2ccc([N+](=O)[O-])cc2Cl)c1O | 12.5 mg/kg |
| Cc1cc(C(=O)c2ccc([N+](=O)[O-])cc2)cc(C(=O)Nc2ccc([N+](=O)[O-])cc2Cl)c1O | 6.3 mg/kg |
| O=C(Nc1ccc(Oc2ccc(Cl)cc2)c(Cl)c1)c1cc(I)cc(I)c1O [RAFOXANIDE] | 12.5 mg/kg |
| Cc1cc(C(=O)c2ccc(Cl)cc2)cc(C(=O)Nc2ccc([N+](=O)[O-])cc2C(F)(F)F)c1O | 6.3 mg/kg |
| Cc1cc(C(=O)c2ccc(Cl)cc2)cc(C(=O)Nc2ccc(C#N)cc2)c1O | 100 mg/kg |
| Cc1cc(C(=O)c2ccc(Cl)cc2)c(C)c(C(=O)Nc2ccc([N+](=O)[O-])cc2Cl)c1O | 3.1 mg/kg |
| Cc1cc(C(=O)c2ccc(Cl)cc2)cc(C(=O)Nc2ccc(Cl)c(Cl)c2)c1O | 100 mg/kg |
| Cc1cc(C(=O)c2ccc(Cl)cc2)cc(C(=O)Nc2ccc([N+](=O)[O-])cc2Br)c1O | 3.1 mg/kg |
| Cc1cc(Oc2ccccc2)cc(C(=O)Nc2ccc(Cl)cc2Cl)c1O | 100 mg/kg |
| Cc1cc(Cc2ccccc2)cc(C(=O)Nc2ccc(Cl)cc2Cl)c1O | 100 mg/kg |
| Cc1cc(C(=O)c2ccc(Cl)c(Cl)c2)cc(C(=O)Nc2ccc([N+](=O)[O-])cc2Cl)c1O | 3.1 mg/kg |
| Cc1c(C(=O)c2ccc(Cl)cc2)cc(C(C)(C)C)c(O)c1C(=O)Nc1ccc([N+](=O)[O-])cc1Cl | 1.6 mg/kg |
| Cc1cc(C(=O)c2ccc(Br)cc2)cc(C(=O)Nc2ccc([N+](=O)[O-])cc2Cl)c1O | 3.1 mg/kg |
| O=C(c1ccc(Cl)cc1)c1ccc(O)c(C(=O)Nc2ccc([N+](=O)[O-])cc2Cl)c1 | 25 mg/kg |
| Cc1cc(C(=O)c2ccc(Br)cc2)cc(C(=O)Nc2ccc(Cl)cc2Cl)c1O | 100 mg/kg |
| Cc1cc(C(=O)c2ccc([N+](=O)[O-])cc2)cc(C(=O)Nc2ccc(Cl)cc2Cl)c1O | 12.5 mg/kg |
| Cc1cc(C(=O)c2ccc(Cl)cc2)cc(C(=O)Nc2ccc(Br)cc2C(F)(F)F)c1O | 6.3 mg/kg |
| Cc1cc(C(=O)c2ccc(Cl)cc2)cc(C(=O)Nc2ccc([N+](=O)[O-])cc2Cl)c1O | 6.3 mg/kg |
| Cc1cc(C(=O)c2ccc(C#N)cc2)cc(C(=O)Nc2ccc([N+](=O)[O-])cc2Cl)c1O | 6.3 mg/kg |
